Experiment: Inhibition of DLK in CD-1 mouse DRG neuron assessed as axonal protection pre-incubated for 2 hrs before NGF deprivation for 16 to 20 hrs by Campenot chamber based fluorescence assay

EC50 [nM]	SMILES
574	CC(C)n1nc(-c2cnc(N)c(OC(F)(F)F)c2)cc1[C@H]1[C@@H]2CN(C3COC3)C[C@@H]21
457	Nc1ncc(-c2cc([C@H]3[C@@H]4CN(C5COC5)C[C@@H]43)n(CC3CC3)n2)cc1C(F)(F)F

From BindingDB's records for doi:10.1021/acs.jmedchem.7b00843 (Wuxi Apptec, 2017)
